“Also recorded” adds a separate entry of the source.
B1: siltuximab (antibody, chains of the INN, looked up, V domains shown)
VH: EVQLVESGGKLLKPGGSLKLSCAASGFTFSSFAMSWFRQSPEKRLEWVAEISSGGSYTYYPDTVTGRFTISRDNAKNTLYLEMSSLRSEDTAMYYCARGLWGYYALDYWGQGTSVTVSS
VL: QIVLIQSPAIMSASPGEKVTMTCSASSSVSYMYWYQQKPGSSPRLLIYDTSNLASGVPVRFSGSGSGTSYSLTISRMEAEDAATYYCQQWSGYPYTFGGGTKLEIK

Experiments:
[1] = system: normal bone marrow CD34+ cells; assay: Colony-forming unit (CFU) assay, normal bone marrow CD34+ cells; type: cell-based; settings: 50 μg/mL, day 14, vs human IgG
Experimental: (§1) (A) Cultured MDS-derived cell line (MDSL) cells were treated with tocilizumab or IgG for 1 hour at the indicated concentration. Cells were then challenged with human recombinant IL-6 (10 ng/mL) for 15 min followed by a western blot assay of p-STAT3. Actin was used as a loading control. (B) 1×10^4/well MDSL cells were seeded in a 96-well plate on day 0 in MDSL culture medium with 50 μg/mL tocilizumab or 50 μg/mL human IgG control. Relative cell number was assessed with CCK-8 reagent at the indicated time points. (C) 1×10^6 MDSL cells were transplanted into sub-lethally irradiated NSG recipient mice. 10 days after transplantation, mice were subjected to weekly treatment with tocilizumab (TCZ) or human IgG (8 mg/kg) by intraperitoneal administration. Engraftment was evaluated 60 days post transplantation via flow cytometry assays of hCD45+ mononuclear cells in the peripheral blood. N=5 in each group, data are presented as Mean±SD. (D) Quantification of the percentage of hCD45+ cells in C. […]
(§2) For the CFU assay, CD34+ cells were thawed in a 37° C. water bath. […] Cell viability was assessed with trypan blue staining and counted with Bio-Rad TC20 cell counter. […] 14 days after seeding, the CFU assay was ready for evaluation. Colonies were counted under an inverted microscope (EVOS M5000, Thermo Fisher), and the colonies were identified by two independent individuals.

MDSL cells [2] = assay: Xenograft of MDSL cells in NSG mice; type: in vivo, mouse; settings: 8 mg/kg weekly intraperitoneal; for spleen weight: NSG mice transplanted with MDSL cells
Experimental: (§3) (A) Cultured MDS-derived cell line (MDSL) cells were treated with tocilizumab or IgG for 1 hour at the indicated concentration. Cells were then challenged with human recombinant IL-6 (10 ng/mL) for 15 min followed by a western blot assay of p-STAT3. Actin was used as a loading control. (B) 1×10^4/well MDSL cells were seeded in a 96-well plate on day 0 in MDSL culture medium with 50 μg/mL tocilizumab or 50 μg/mL human IgG control. Relative cell number was assessed with CCK-8 reagent at the indicated time points. (C) 1×10^6 MDSL cells were transplanted into sub-lethally irradiated NSG recipient mice. 10 days after transplantation, mice were subjected to weekly treatment with tocilizumab (TCZ) or human IgG (8 mg/kg) by intraperitoneal administration. Engraftment was evaluated 60 days post transplantation via flow cytometry assays of hCD45+ mononuclear cells in the peripheral blood. N=5 in each group, data are presented as Mean±SD. (D) Quantification of the percentage of hCD45+ cells in C. (E-F) Colony-forming unit (CFU) assays in normal (E) and high risk MDS patient (F) bone marrow derived CD34+ cells. 1×10^3 normal (E) or 2×10^3 patient CD34+ cells (F) were seeded in MethoCult medium supplemented with human IgG or tocilizumab (50 μg/mL) on day 0. The number of colonies was accessed on day 14. Triplicate assay colonies were independently identified by two individuals. Data are presented as Mean±SD. E, G, M, GM, and GEMM represent BFU/CFU-E, CFU-G, CFU-M, CFU-GM, and CFU-GEMM, respectively, in both E and F.
NOD/SCID-IL2Rg mice (NSG) mice were purchased from the Jackson Laboratory (Stock #005557). 1×10^6 of MDS-derived cell line (MDSL) cells were retro-orbitally injected into 12-week-old sub-lethally irradiated (250 rad) female NSG mice. Ten days after transplantation, human IgG isotype control (BE0297, InVivoMab) or tocilizumab (Selleck) were administered at 8 mg/kg weekly via intraperitoneal injection. To evaluate the engraftment, peripheral blood was collected from tail vein on day 60. […]

[3] = system: high risk MDS patient bone marrow derived CD34+ cells; assay: Colony-forming unit (CFU) assay, high risk MDS patient bone marrow CD34+ cells; type: cell-based; settings: CD34+ cells from high risk MDS patients, 50 μg/mL, day 14, vs human IgG
Experimental: as §1, §2

MDSL cells [4] = assay: Cell death in MDSL cells; type: cell-based, human
p-STAT3 = assay: Western blot of p-STAT3 in MDSL cells challenged with human recombinant IL-6; type: cell-based; settings: 1 hour treatment, then human recombinant IL-6 10 ng/mL for 15 min, vs IgG
Experimental: as §3, with “Data are presented as Mean±SD. E, G, M, GM, and GEMM represent BFU/CFU-E, CFU-G, CFU-M, CFU-GM, and CFU-GEMM, respectively, in both E and F.” left out

MDSL cells [5] = assay: MDSL cell proliferation (CCK-8); type: cell-based; settings: 50 μg/mL, vs human IgG control
Experimental: as §3, with “Data are presented as Mean±SD. E, G, M, GM, and GEMM represent BFU/CFU-E, CFU-G, CFU-M, CFU-GM, and CFU-GEMM, respectively, in both E and F.” left out

[6] = transfusion-dependent patients, low or intermediate-1-risk MDS, vs placebo; cited from earlier work

| Molecule | colony expansion or composition / colony numbers [1] | colony expansion or composition / colony numbers ([1]; listed as Tocilizumab) | spleen weight (MDSL cells [2]) | spleen weight (MDSL cells [2]; listed as Tocilizumab) | MDSL engraftment (hCD45+ mononuclear cells in the peripheral blood) (MDSL cells [2]; NSG mice, 60 days post transplantation, vs human IgG) | colony numbers / clonogenicity [3] | colony numbers / clonogenicity ([3]; listed as Tocilizumab) | cell death (MDSL cells [4]) | p-STAT3 (p-STAT3) | cell proliferation (relative cell number, CCK-8) (MDSL cells [5]) | RBC transfusions [6] |
| --- | --- | --- | --- | --- | --- | --- | --- | --- | --- | --- | --- |
| tocilizumab | no effects on the colony numbers | did not affect colony expansion or composition | reduces spleen weight | reduced the spleen weight | significantly reduced MDSL engraftment; also recorded: markedly reduced the engraftment | markedly reduced; also recorded: reduces cell proliferation and colony formation; also recorded: reduces the colony numbers | significantly reduced clonogenicity | partial induction of cell death; also recorded: partially induces cell death | significant reduction | decreased cell proliferation; also recorded: reduces cell proliferation |  |
| B1 |  |  |  |  |  |  |  |  |  |  | no reduction in RBC transfusions |

— US20240228607A9, “METHODS FOR TREATING HIGH RISK MYELODYSPLASTIC SYNDROMES” (Northwestern University, priority 2022, published 2024)
